In this test the target is c-MET (Homo sapiens, UniProt P08581). Briefly: Ki determination for the inhibition of c-MET (standard radiometric 33P-ATP kinase assay, polyE4Y substrate). Type of test: biochemical. As to conditions: 1.0 nM c-Met, 35 μM ATP, 0.5 mg/mL polyE4Y, 20 min; competitive tight-binding fit. The method, boiled down: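 Ki obtained by fitting data to competitive tight-binding inhibition kinetics. c-Met at 1.0 nM phosphorylated polyE4Y (0.5 mg/mL) with 35 μM 33P-ATP for 20 min in pH 7.5 HEPES buffer with MgCl2, NaCl, BSA and DTT. Incorporated label measured by scintillation after TCA precipitation on filters.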
c-MET, sequence (P08581 25-1390): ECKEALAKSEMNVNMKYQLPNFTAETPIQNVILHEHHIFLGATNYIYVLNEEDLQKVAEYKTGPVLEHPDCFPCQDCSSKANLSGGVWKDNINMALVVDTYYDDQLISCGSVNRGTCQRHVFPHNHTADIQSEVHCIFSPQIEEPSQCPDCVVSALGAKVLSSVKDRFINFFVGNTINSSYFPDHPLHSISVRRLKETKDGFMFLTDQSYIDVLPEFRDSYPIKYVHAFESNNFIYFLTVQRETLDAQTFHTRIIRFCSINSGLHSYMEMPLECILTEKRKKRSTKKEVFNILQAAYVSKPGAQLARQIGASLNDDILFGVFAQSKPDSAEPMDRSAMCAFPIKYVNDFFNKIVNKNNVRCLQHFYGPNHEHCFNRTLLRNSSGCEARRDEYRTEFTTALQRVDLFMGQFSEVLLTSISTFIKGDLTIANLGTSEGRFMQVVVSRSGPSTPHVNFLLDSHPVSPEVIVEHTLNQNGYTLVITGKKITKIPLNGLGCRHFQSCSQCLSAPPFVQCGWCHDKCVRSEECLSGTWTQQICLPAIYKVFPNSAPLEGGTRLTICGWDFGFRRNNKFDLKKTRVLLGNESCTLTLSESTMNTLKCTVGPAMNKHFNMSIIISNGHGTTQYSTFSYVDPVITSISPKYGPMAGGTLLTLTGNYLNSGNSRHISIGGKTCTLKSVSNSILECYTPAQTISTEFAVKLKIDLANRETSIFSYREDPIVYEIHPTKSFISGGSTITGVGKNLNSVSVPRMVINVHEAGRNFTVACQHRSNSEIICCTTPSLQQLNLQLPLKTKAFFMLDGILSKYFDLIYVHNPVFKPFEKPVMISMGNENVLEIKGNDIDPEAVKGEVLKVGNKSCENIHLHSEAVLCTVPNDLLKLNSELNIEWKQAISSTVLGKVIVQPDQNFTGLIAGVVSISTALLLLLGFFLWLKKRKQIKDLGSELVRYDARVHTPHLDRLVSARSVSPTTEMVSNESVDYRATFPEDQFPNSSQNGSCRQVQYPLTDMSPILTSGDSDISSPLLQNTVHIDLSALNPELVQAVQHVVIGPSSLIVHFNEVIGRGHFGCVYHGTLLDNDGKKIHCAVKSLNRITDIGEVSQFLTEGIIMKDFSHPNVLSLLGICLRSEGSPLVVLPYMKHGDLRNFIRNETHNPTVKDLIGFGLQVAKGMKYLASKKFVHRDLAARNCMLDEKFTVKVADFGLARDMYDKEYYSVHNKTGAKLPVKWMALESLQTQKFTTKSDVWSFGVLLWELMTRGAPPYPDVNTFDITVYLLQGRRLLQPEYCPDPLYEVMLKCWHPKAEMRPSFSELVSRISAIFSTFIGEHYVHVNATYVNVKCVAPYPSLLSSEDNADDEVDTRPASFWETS

Molecules are shown by their SMILES.

Consider 75 compounds from patent US8232406B2, “c-MET protein kinase inhibitors” (Vertex Pharmaceuticals Incorporated, priority 2006, dated 2012).

Turning to `CCN1CCC(n2cc(-c3cnc(N)c(-c4nncn4-c4cccc(Cl)c4F)c3)cn2)CC1` [I-A-458], the Ki is not above 100 nM.
For the compound `CN(C)CCn1cc(-c2cnc(N)c(-c3nnnn3-c3cccc(Cl)c3Cl)c2)cn1` [I-A-410], the Ki is not above 100 nM.
To `COCCOc1ccc(-c2cnc(N)c(-c3nnnn3-c3cccc(F)c3F)c2)cc1OCCOC` [I-A-354] belongs not above 100 nM; to `Nc1ncc(-c2cnn(C3CCNCC3)c2)cc1-c1nnnn1-c1cc(F)cc(F)c1` [I-A-627], 100 to 1000 nM; to `Nc1ncc(-c2cccnc2)cc1-c1nccn1-c1cccc(Cl)c1Cl` [I-A-65], not above 100 nM.
`Nc1ncc(-c2ccc(CC3(O)CCNCC3)cc2)cc1-c1nnnn1-c1cccc(F)c1F` [I-A-157]: the Ki is not above 100 nM.
As for `Nc1ncc(-c2cccc(Cl)c2)cc1-c1nnnn1-c1cccc(F)c1F` [I-A-225], the figure is 100 to 1000 nM; as for `CC(=O)Nc1ccc(-c2cnc(N)c(-c3nnnn3-c3c(F)cccc3F)c2)cc1` [I-A-607], 100 to 1000 nM; as for `Nc1ncc(-c2cccnc2)cc1-c1nnnn1-c1c(F)ccc(F)c1Cl` [I-A-618], 100 to 1000 nM.
As for `Nc1ncc(-c2ccc(CN3CCCC3)cc2)cc1-c1nnnn1-c1cccc(F)c1F` [I-A-67], the figure is not above 100 nM; as for `CCN1CCC[C@@H](n2cc(-c3cnc(N)c(-c4nnnn4-c4cccc(Cl)c4Cl)c3)cn2)C1` [I-A-499], not above 100 nM.
To `Cn1cc(-c2cnc(N)c(-c3nnnn3-c3cccc(F)c3F)c2)cn1` [I-A-249] belongs not above 100 nM.
For the compound `COCCOC(=O)Nc1cccc(-c2cnc(N)c(-c3nnnn3-c3cccc(F)c3F)c2)c1` [I-A-271], the Ki was in the range of 100 to 1000 nM.
To `CN1CCC(n2cc(-c3cnc(N)c(-c4nnnn4-c4cccc(F)c4F)c3)cn2)CC1` [I-A-434] belongs not above 100 nM; to `CC(=O)N1CCC(n2cc(-c3cnc(N)c(-c4nnnn4-c4cccc(Cl)c4F)c3)cn2)CC1` [I-A-399], not above 100 nM; to `Nc1ncc(-c2cnn(C3CCNCC3)c2)cc1-c1nnnn1-c1c(F)ccc(F)c1Cl` [I-A-640], not above 100 nM.
To `Nc1ncc(-c2ccc(CN3CCCC3)cc2)cc1-c1nnnn1-c1cc(Cl)ccc1F` [I-A-595] belongs 100 to 1000 nM; to `Nc1ncc(-c2cnn(C3CCNCC3)c2)cc1-c1nnnn1-c1cc(F)cc(F)c1Cl` [I-A-634], 100 to 1000 nM; to `COC(=O)Nc1ccc(-c2cnc(N)c(-c3nnnn3-c3cccc(F)c3F)c2)cc1` [I-A-352], 100 to 1000 nM.
`Nc1ncc(-c2ccc(CN3CCCC3)cc2)cc1-c1nnnn1-c1cccc(Cl)c1F` [I-A-343] displayed a Ki not above 100 nM.
`Nc1ncc(-c2ccc(CN3CCCC(CO)C3)cc2)cc1-c1nnnn1-c1cccc(Cl)c1Cl` (stereo not drawn) [I-A-99]: the Ki was not above 100 nM.
Compound `CCOC(=O)Cn1cc(-c2cnc(N)c(-c3nnnn3-c3cccc(F)c3F)c2)cn1` [I-A-345] showed a Ki not above 100 nM.
As for `CC(C)(C)NC(=O)Nc1cccc(-c2cnc(N)c(-c3nnnn3-c3cccc(F)c3F)c2)c1` [I-A-328], the figure is not above 100 nM.
Compound `CC(C)(C)CC(=O)Nc1ccc(-c2cnc(N)c(-c3nnnn3-c3cccc(F)c3F)c2)cc1` [I-A-199] displayed an inhibition constant Ki not above 100 nM.
As for `Nc1ncc(-c2ccc(NC(=O)CO)cc2)cc1-c1nnnn1-c1cccc(F)c1F` [I-A-338], the figure is not above 100 nM; as for `Nc1ncc(-c2ccc(NC(=O)Nc3cccnc3)cc2)cc1-c1nnnn1-c1cccc(F)c1F` [I-A-278], 100 to 1000 nM.
Compound `Nc1ncc(-c2cnn(C3CCNCC3)c2)cc1-c1nncn1-c1cccc(Cl)c1F` [I-A-438] showed a Ki not above 100 nM.
To `CN1CCN(C(=O)Nc2cccc(-c3cnc(N)c(-c4nnnn4-c4cccc(F)c4F)c3)c2)CC1` [I-A-270] belongs 100 to 1000 nM.
`Nc1ncc(-c2ccn(CCN3CCCC3)c2)cc1-c1nnnn1-c1cccc(F)c1F` [I-A-466] displayed a Ki not above 100 nM.
As for `Nc1ncc(-c2cscn2)nc1-c1nnnn1-c1ccccc1F` [I-A-541], the figure is 100 to 1000 nM; as for `CC(=O)Nc1cccc(-c2cnc(N)c(-c3nnnn3-c3c(F)cccc3Cl)c2)c1` [I-A-612], 100 to 1000 nM; as for `COc1cc(-c2cnc(N)c(-c3nnnn3-c3cccc(F)c3F)c2)ccc1O` [I-A-299], not above 100 nM.
As for `CN(C)Cc1ccc(-c2cnc(N)c(-c3nnnn3-c3c(F)cccc3Cl)c2)cc1` [I-A-623], the figure is not above 100 nM; as for `CN1CCN(Cc2ccc(-c3cnc(N)c(-c4nnnn4-c4cccc(F)c4F)n3)cc2)CC1` [I-A-50], not above 100 nM.
To `Nc1ncc(-c2ccc(N3CCNCC3)cc2)cc1-c1nc2cccnc2n1-c1cccc(Cl)c1F` [I-D-16] belongs 100 to 1000 nM; to `Nc1ncc(-c2cc3c(s2)CCNCC3)cc1-c1nnnn1-c1cccc(Cl)c1F` [I-A-481], not above 100 nM.
Turning to `CNC(=O)Cn1cc(-c2cnc(N)c(-c3nnnn3-c3cccc(F)c3F)c2)cn1` [I-A-369], the Ki lay within 100 to 1000 nM.
As for `Nc1ncc(C2=CCCNCC2)cc1-c1nnnn1-c1cccc(F)c1F` [I-A-646], the figure is 100 to 1000 nM.
In the case of `CN1CCN(Cc2ccc(-c3cnc(N)c(-c4nnc(O)n4-c4cccc(F)c4F)c3)cc2)CC1` [I-A-42], the Ki was in the range of 100 to 1000 nM.
Consider `Nc1ncc(-c2cnc3ccccc3c2)nc1-c1nncn1-c1cccc(F)c1F` [I-A-33], for which the Ki fell in the range of 100 to 1000 nM.
As for `CC(=O)Nc1ccc(-c2cnc(N)c(-c3nnnn3-c3cccc(F)c3F)c2)cc1F` [I-A-127], the figure is not above 100 nM; as for `CN(C)Cc1ccc(-c2cnc(N)c(-c3nnnn3-c3cc(Cl)cc(Cl)c3)c2)cc1` [I-A-590], 100 to 1000 nM; as for `Nc1ncc(-c2ccc(CN3CCCC3)cc2)cc1-c1nnnn1-c1c(Cl)cccc1Cl` [I-A-622], not above 100 nM.
`Nc1ncc(-c2cc(Cl)c(N)c(Cl)c2)cc1-c1nnnn1-c1cccc(F)c1F` [I-A-287] gave a Ki not above 100 nM.
The compound `CC(C)(O)c1ccc(-c2cnc(N)c(-c3nnnn3-c3cccc(F)c3F)c2)cc1` [I-A-268] had a Ki not above 100 nM.
As for `Nc1ncc(-c2cccnc2)nc1-c1nncn1-c1cccc(F)c1F` [I-A-2], the figure is 100 to 1000 nM.
As for `CC(=O)Nc1cccc(-c2cnc(N)c(-n3nnnc3-c3cccc(F)c3F)c2)c1` [I-E-5], the figure is 100 to 1000 nM; as for `Nc1ncc(-c2ccc3c(c2)C(=O)C(=O)N3)cc1-c1nnnn1-c1cccc(F)c1F` [I-A-204], not above 100 nM.
To `Nc1ncc(-c2cccnc2)cc1-c1nc2cnccc2n1-c1cccc(F)c1F` [I-D-1] belongs not above 100 nM; to `Nc1cccc(-c2cnc(N)c(-c3nnnn3-c3cccc(F)c3F)c2)c1` [I-A-201], not above 100 nM; to `Nc1ncc(-c2cnn(CC(O)CO)c2)cc1-c1nc2cnccc2n1-c1cccc(F)c1F` [I-D-10], not above 100 nM.
Consider `Nc1cccc(-c2cnc(N)c(-c3nncn3-c3cccc(Cl)c3Cl)c2)c1` [I-A-68], for which the Ki fell in the range of 100 to 1000 nM.
In turn, `COC[C@H]1CCCN1Cc1ccc(-c2cnc(N)c(-c3nnnn3-c3cccc(F)c3F)c2)cc1` [I-A-264] returned a Ki not above 100 nM.
`CC(=O)N1CCC(n2cc(-c3cnc(N)c(-c4nnnn4-c4cccc(F)c4F)c3)cn2)CC1` [I-A-455]: the Ki is not above 100 nM.
Take `COC(=O)C(C)(C)c1ccc(-c2cnc(N)c(-c3nnnn3-c3cccc(F)c3F)c2)cc1` [I-A-207]: the Ki was not above 100 nM.
As for `Nc1ncc(-c2cnn([C@@H]3CCNC3)c2)nc1-c1nnnn1-c1cccc(F)c1F` [I-A-660], the Ki was not above 100 nM.
`Nc1ncc(-c2cnn(C3CCN(CC4CC4)CC3)c2)cc1-c1nnnn1-c1cccc(Cl)c1F` [I-A-472] gave a Ki not above 100 nM.
For `COc1ccc(OC)c(-c2cnc(N)c(-c3nnnn3-c3cccc(F)c3F)c2)c1` [I-A-306], the Ki was in the range of 100 to 1000 nM.
As to `CC(C)(O)Cn1cc(-c2cnc(N)c(-c3nnnn3-c3cccc(F)c3F)c2)cn1` [I-A-348], the Ki was not above 100 nM.
As for `Nc1ncc(-c2ccc(CN3CCCC3=O)cc2)cc1-c1nnnn1-c1cccc(F)c1F` [I-A-203], the figure is not above 100 nM; as for `Nc1ncc(-c2ccn(C3CCNCC3)c2)cc1-c1nnnn1-c1cccc(Cl)c1F` [I-A-652], not above 100 nM.
To `Nc1ncc(-c2cccnc2)cc1-c1nnnn1-c1cccc(F)c1F` [I-A-20] belongs 100 to 1000 nM; to `COc1c(F)cccc1-n1nnnc1-c1cc(-c2cccc(NC(C)=O)c2)cnc1N` [I-A-562], 100 to 1000 nM; to `COCCN1CCC(n2cc(-c3cnc(N)c(-c4nnnn4-c4cccc(Cl)c4F)c3)cn2)CC1` [I-A-477], not above 100 nM.
As for `Nc1ncc(-c2ccc(N3CCCC3)nc2)nc1-c1nncn1-c1cccc(F)c1F` [I-A-4], the figure is 100 to 1000 nM; as for `N#CCN1CCC(n2cc(-c3cnc(N)c(-c4nnnn4-c4cccc(F)c4F)c3)cn2)CC1` [I-A-462], not above 100 nM; as for `CCNC(=O)Nc1nc2cc(-c3cnc(N)c(-c4nnnn4-c4cccc(F)c4F)c3)c(OC)cc2[nH]1` [I-A-142], 100 to 1000 nM.
`NC(=O)Nc1ccc(-c2cnc(N)c(-c3nnnn3-c3cccc(F)c3F)c2)cc1` [I-A-183] displayed a Ki not above 100 nM.
With `CC1(C)CN(c2cccc(-c3cnc(N)c(-c4nnnn4-c4cccc(F)c4F)c3)c2)C1=O` [I-A-324], the Ki was in the range of 100 to 1000 nM.
To `CN(C)CCCN(C)S(=O)(=O)c1ccc(-c2cnc(N)c(-c3nnnn3-c3cccc(F)c3F)c2)cc1` [I-A-159] belongs not above 100 nM; to `Nc1ncc(-c2cnn(CCN3CCCC3)c2)cc1-c1nnnn1-c1cccc(Cl)c1Cl` [I-A-411], not above 100 nM.
To `Nc1ncc(-c2ccc3c(c2)CC(=O)N3)cc1-c1nnnn1-c1cccc(F)c1F` [I-A-188] belongs not above 100 nM.
With `CN(C)C(=O)N1CCC(n2cc(-c3cnc(N)c(-c4nnnn4-c4cccc(Cl)c4F)c3)cn2)CC1` [I-A-445], the Ki was not above 100 nM.
To `CC(=O)Nc1cccc(-c2cnc(N)c(-c3nncn3-c3cccc(Cl)c3Cl)c2)c1` [I-A-73] belongs 100 to 1000 nM; to `CCCN(CCC)Cc1ccc(-c2cnc(N)c(-c3nnnn3-c3cccc(F)c3F)c2)cc1` [I-A-156], not above 100 nM.
